Source: PubChem BioAssay (NCI)
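Results reflect a 48-hour exposure of cells in 96-well plates to compound at five concentrations. TGI is the concentration that stops growth completely.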

What was measured:
Experiment in all cases: NCI-60 cell line screen, 48 h
[1] = test system: SK-OV-3 ovarian
[2] = test system: HOP-92 NSCLC
[3] = test system: NCI-H522 lung
[4] = test system: SF-539 CNS
[5] = test system: U251 CNS
[6] = test system: SNB-78 CNS
[7] = test system: LXFL 529 NSCLC
[8] = test system: SF-295 CNS
[9] = test system: SK-MEL-28 melanoma
[10] = test system: KM20L2 colon
[11] = test system: RPMI-8226 leukemia
[12] = test system: SNB-75 CNS
[13] = test system: HT29 colon
[14] = test system: OVCAR-3 ovarian
[15] = test system: 786-0 renal
[16] = test system: HOP-62 NSCLC
[17] = test system: HL-60(TB) leukemia
[18] = test system: M19-MEL melanoma
[19] = test system: COLO 205 colon
[20] = test system: ACHN renal
[21] = test system: IGROV1 ovarian
[22] = test system: NCI-H23 lung
[23] = test system: UACC-62 melanoma
[24] = test system: A498 renal
[25] = test system: K-562 leukemia
[26] = test system: SNB-19 CNS
[27] = test system: OVCAR-4 ovarian
[28] = test system: UO-31 renal
[29] = test system: MALME-3M melanoma
[30] = test system: SK-MEL-2 melanoma
[31] = test system: OVCAR-5 ovarian
[32] = test system: KM12 colon
[33] = test system: RXF 393 renal
[34] = test system: SF-268 CNS
[35] = test system: CCRF-CEM leukemia
[36] = test system: M14 melanoma
[37] = test system: UACC-257 melanoma
[38] = test system: NCI-H460 lung
[39] = test system: HCC-2998 colon
[40] = test system: DLD-1 colon
[41] = test system: HCT-116 colon
[42] = test system: MOLT-4 leukemia
[43] = test system: DMS 273 small cell lung
[44] = test system: NCI-H226 lung
[45] = test system: LOX IMVI melanoma

Compound | TGI [3] [µM] | TGI [4] [µM] | TGI [5] [µM] | TGI [6] [µM] | TGI [7] [µM] | TGI [9] [µM] | TGI [10] [µM] | TGI [11] [µM] | TGI [12] [µM] | TGI [15] [µM] | TGI [16] [µM] | TGI [17] [µM] | TGI [22] [µM] | TGI [25] [µM] | TGI [26] [µM] | TGI [27] [µM] | TGI [33] [µM] | TGI [35] [µM] | TGI [36] [µM] | TGI [38] [µM] | other results
CCN(CC)CCN1C(=O)CC2[C@@H]3CCc4cc(OC)ccc4C3CC[C@]2(C)C1=O (stereo not given in full) | 53.7 | 19.5 | > 100 | > 100 | 30.9 | 33.1 | 46 | 66 | > 100 | 31.1 | 54.2 | 36.7 | > 100 | 36.1 | > 100 | > 100 | 92.3 | 39.2 | 33.1 | > 100 | TGI [1]: > 100 µM; TGI [2]: > 100 µM; TGI [8]: 37.6 µM; TGI [13]: 41.4 µM; TGI [14]: > 100 µM; TGI [18]: 35.8 µM; TGI [19]: 39.1 µM; TGI [20]: > 100 µM; TGI [21]: > 100 µM; TGI [23]: 36 µM; TGI [24]: > 100 µM; TGI [28]: 64.6 µM; TGI [29]: 33.4 µM; TGI [30]: 37.4 µM; TGI [31]: > 100 µM; TGI [32]: > 100 µM; TGI [34]: > 100 µM; TGI [37]: 30.2 µM
Cc1cnc(-c2ccccc2)o1 | > 100 | > 100 | > 100 | > 100 | > 100 | > 100 | > 100 | > 100 | > 100 | > 100 | > 100 | > 100 | > 100 | > 100 | > 100 | > 100 | > 100 | > 100 | > 100 | > 100 | TGI [39]: > 100 µM; TGI [40]: > 100 µM; TGI [41]: > 100 µM; TGI [42]: > 100 µM; TGI [43]: > 100 µM; TGI [44]: > 100 µM; TGI [45]: > 100 µM
